Experiment in all cases: In vitro fungal growth on inoculated agar plates, benzoxaborole and CO2 chamber treatment
What all share (format): cell-based

The test system of experiment [1] is Fusarium sambucinum (FUSASA). From the text: (§1) The following experiments were used to determine synergy between benzoxaborole Compounds A, B, and/or C and preservative gases, such as carbon dioxide (CO2) and sulfur dioxide (SO2). Specific rates or any other unique conditions are noted within the corresponding results tables. Each experiment comprised an air-tight 36 liter (L) chamber (Fisher Scientific, P/N: 08-642-23C), fitted with a bulkhead septum port (Swagelok, P/N: SS-400-61, Solon, OH) used for treatment delivery, as well as for monitoring (using needle extraction) carbon dioxide (CO2), sulfur dioxide (SO2), oxygen (O2) or other headspace samples. A variable speed fan (Thermaltake, Mobile Fan II, P/N: A1888, Taipei City, Taiwan) set to low was also used to circulate the headspace atmosphere.
(§2) In vitro and in vivo experiments were performed concurrently in triple replicates (i.e., triplicate) unless otherwise noted. For in vitro experiments, a single 6-well microtiter plate or three, 10-cm petri plates each containing half strength Potato Dextrose Agar were prepared. Each well or plate was inoculated with 1 microliter (μL) of 1×10^5 spores/ml of the appropriate pathogenic spore suspension (e.g., Botrytis cinerea, BOTRCI; Penicillium expansum, PENIEX; Mucor piriformis, MUCOPI; Fusarium sambucinum FUSASA; or Aspergillus brasiliensis, ASPEBR). The inoculated microtiter or petri plates were then sealed with a breathable film (AeraSeal; P/N: B-100, Excel Scientific, Victorville, CA).
(§3) For treatment, the inoculated agar plates and clamshells containing fruits (e.g., strawberries and grapes) were placed inside a 36 L experimental chamber unit, which was then sealed prior to commencement of compound treatments. The chamber remained sealed throughout the duration of the experiment except for addition of treatment to the chamber, and post-treatment ventilation.
(§4) Benzoxaborole Compound A or Compound B was dissolved in acetone and dispensed onto a 60 mm Whatman #1 filter paper disk using a pipette. The acetone was permitted to evaporate for five minutes before the disk was placed on a watch glass in each chamber.
(§5) A 12% CO2 headspace treatment was then established in the chamber by permitting 10 grams (g) of crushed dry ice placed in a weigh boat in the chamber to evaporate in the sealed chamber. However, the bulkhead port of the chamber was loosened to permit the release of internal pressure. Optionally, a fan was used during the initial hours of treatment (i.e., up to about 6 hours of treatment) to ensure uniform treatment exposure of fruits and plates.
(§6) Untreated controls and CO2 treated chambers contained an acetone-treated disk with similar evaporation for five minutes. CO2 and O2 levels in the chamber were monitored using a handheld gas detector (Dansensor Checkpoint II; P/N 600111, Ringsted, Denmark). Temperature and relative humidity were also monitored within the chamber using data loggers (Onset HOBO; P/N U12-013, Bourne, MA).
(§7) The chamber for all in vitro and in vivo experiments was held at room temperature (i.e., from about 21° C. to about 23° C.) typically for about 3.5 days (i.e., about 84 hours) of treatment exposure. Chambers were then vented. After an additional 2-3 days with the chamber at room temperature, post-treatment radial growth (in mm) of each in vitro pathogen (see Examples 1-7, Tables 1-7) was measured on the inoculated plates using electronic calipers (Mitutoyo, P/N: CD-6-CX, Aurora, IL). In addition, the point of inoculation on fruits was assessed for indication of in vivo disease incidence (e.g., yes or no) and severity of disease incidence (see Examples 8-16, Tables 8-16). Disease severity was rated on a scale ranging from 0 to 4, where “0” indicated no disease severity, “1” indicated minimal disease severity, “2” indicated medium disease severity, “3” indicated high disease severity, and “4” indicated exceptionally high disease severity. […]

Experiment [2] concerns Mucor piriformis (MUCOPI).
Description: as §1, §2, §3, §4, §5, §6, §7

The subject of experiment [3] is Penicillium expansum (PENIEX).
Description: as §1, §2, §3, §4, §5, §6, §7

The mark [4] stands for this setting: Table 5, compound 0.14 mg/L + 12% CO2, Colby equation E=x+y−x*y/100.
[5] abbreviates: Table 5, compound 0.14 mg/L + 12% CO2, evaluated 2 days after treatment, 6-well plate, fan first 6 hours, >90% R.H.
[6] abbreviates: Table 5, compound alone 0.14 mg/L, evaluated 2 days after treatment, 6-well plate, fan first 6 hours, >90% R.H.

These results are taken from US12213485B2, “Synergistic methods of using benzoxaborole compounds and preservative gases as an antimicrobial for crops” (AGROFRESH INC., priority 2016, dated 2025).

Structures are written as SMILES.

As to `OB1OCc2cc(F)ccc21` [Compound A], the “Colby Calculation” value in experiment [1] (setting [4]) is given as 104.0; in experiment [2] (Table 3, compound 0.14 mg/L + 12% CO2, Colby equation E=x+y−x*y/100) it was 189.0; in experiment [3] (Table 1, compound 0.14 mg/L + 12% CO2, Colby equation E=x+y−x*y/100), 225.0; in experiment [3] (Table 2, compound 0.14 mg/L + 12% CO2, Colby equation E=x+y−x*y/100), 119.7; in experiment [3] (Table 4, compound 0.14 mg/L + 12% CO2, Colby equation E=x+y−x*y/100), 124.4; in experiment [3] (setting [4]) it was 102.5. In addition, the “Colby Calculation” value in experiment [3] (Table 7, compound 0.035 mg/L + 12% CO2, Colby equation E=x+y−x*y/100) is listed as 114.7. Besides, the “Growth (diameter, mm) Cmpd + 12% CO2” value in experiment [1] (setting [5]) was determined as 3.8 mm; in experiment [2] (Table 3, compound 0.14 mg/L + 12% CO2, evaluated 2 days after treatment, 6-well microtiter plate, fan first 6 hours, >90% R.H.), 11.0 mm; in experiment [3] (Table 1, compound 0.14 mg/L + 12% CO2, evaluated 2 days after treatment completion, 6-well microtiter plate, 4 replicates, fan first 6 hours), 3.3 mm; in experiment [3] (Table 2, compound 0.14 mg/L + 12% CO2, evaluated 2 days after treatment, 6-well microtiter plate, fan first 6 hours, >90% R.H.), 5.2 mm; in experiment [3] (Table 4, compound 0.14 mg/L + 12% CO2, evaluated 2 days after treatment completion, 6-well microtiter plate, fan first 6 hours), 0.5 mm; in experiment [3] (setting [5]), 8.6 mm. Also, in experiment [3] (Table 7, compound 0.035 mg/L + 12% CO2, evaluated 3 days after treatment, 10 cm Petri plates, fan continuous), the “Growth (diameter, mm) Cmpd + 12% CO2” value was 4.7 mm. Besides, the “Growth (diameter, mm) Cmpd” value turned out to be 5.0 mm in experiment [1] (setting [6]); 22.3 mm in experiment [2] (Table 3, compound alone 0.14 mg/L, evaluated 2 days after treatment, 6-well microtiter plate, fan first 6 hours, >90% R.H.); 17.0 mm in experiment [3] (Table 1, compound alone 0.14 mg/L, evaluated 2 days after treatment completion, 6-well microtiter plate, 4 replicates, fan first 6 hours); 9.7 mm in experiment [3] (Table 2, compound alone 0.14 mg/L, evaluated 2 days after treatment, 6-well microtiter plate, fan first 6 hours, >90% R.H.); 6.4 mm in experiment [3] (Table 4, compound alone 0.14 mg/L, evaluated 2 days after treatment completion, 6-well microtiter plate, fan first 6 hours); 10.2 mm in experiment [3] (setting [6]). Besides, the “Growth (diameter, mm) Cmpd” value in experiment [3] (Table 7, compound alone 0.035 mg/L, evaluated 3 days after treatment, 10 cm Petri plates, fan continuous) was determined as 10.6 mm.
